Test results as given in patent US20110158953A1, “TUMOR SUPPRESSION THROUGH PLEXIN C1” (UNIVERSITY OF ROCHESTER, priority 2008, published 2011).
Entries after “also recorded” stand apart in the source; their conditions may differ.

Tests used:
Plexin C1 = Plexin C1 protein expression in human melanoma cell lines treated with DNA methylation inhibitor (Western blot); format: cell-based; conditions: 5 days; for Change in Plexin C1 protein: 3 μM
Procedure: Results are representative of 2 separate experiments.
Promotor hypermethylation plays a major role in transcriptional silencing of tumor suppressor genes in cancer and in melanoma (Dahl and Guldberg, 2007; Gronbaek et al., 2007; Rothhammer and Bosserhoff, 2007). To determine if Plexin C1 expression is regulated by DNA hypermethylation, melanoma cells were treated for 5 days with the DNA methylation inhibitor 5-Aza-2′-Deoxycytidine (5-Aza2Dc; 3 μM). Total cell lysates were then blotted for Plexin C1. […] But, a dose of 1.0 μM was the lowest dose that stimulated Plexin C1 expression in the YURIF and WW165 cell lines (FIG. 1C).
Neonatal foreskins were obtained according to the University of Rochester Research Subjects Review Board guidelines and were the source of cultured human melanocytes. Human melanocytes were cultured in MCDB 153 supplemented with 0.5% fetal bovine serum (FBS), bovine pituitary extract (15 μg/ml), phorbol ester (10 nM), basic fibroblast growth factor (1 ng/ml), insulin (5 μg/ml) and hydrocortisone (500 ng/ml). All supplements were purchased from Sigma Co, except FBS, which was purchased from Mediatech (Manassas, Va.). The following human melanoma cell lines were purchased from the Yale University Cell Core Facility: WW165, YURIF, YUSIK, YUMAC, and were maintained in Opti-MEM+5% FBS, except WW165 which was maintained in Opti-MEM+5% FBS and IBMX 0.1 mM. The C32 and WM115 human melanoma cell lines were obtained from American Type Culture Collection (Manassas Va.) and were maintained in Eagle Minimal Essential Media (MEM)+10% FBS and 1 mM sodium pyruvate. The WM115 and WW 165 cell lines were derived from melanomas primary to the skin; the other cell lines were derived from metastatic melanoma.
For Western blotting, cells were lysed in RIPA buffer (150 mM NaCl, 1% NP-40, 0.5% DOC, 0.1% SDS, 50 mM Tris-HCl) with protease inhibitors (Boehringer Mannheim, Gmbt, Germany) and phosphatase inhibitors (Gbiosciences, St. Louis, Mo.) and protein was quantified using bovine serum albumen (BSA) as standard (Bio-Rad Laboratories, Hercules, Calif.). Visualization of the immunoreactive proteins was accomplished with an enhanced chemiluminescence reaction (Pierce Chemical, Rockford, Ill.). For analysis of cell surface Sema7A expression in melanoma cell lines by flow cytometry, cells were placed in suspension in PBS/1% BSA and stained with FITC-conjugated antibodies against Sema7A for 30 minutes at room temperature. Negative controls consisted of cells incubated with FITC-conjugated IgM. After washing in PBS, cells were re-suspended in 0.5% formalin in PBS/1% BSA and analyzed using a FACS Caliber Machine (Becton Dickenson) at the flow cytometry core facility at the University of Rochester.

Erk1/Erk2 = test: Sema7A-stimulated MAP kinase activation (P-Erk1/Erk2) in human melanocytes (Western blot); format: cell-based; conditions: PD 98059 10 μM one hour prior to Sema7A 25 ng/ml for 5 minutes
Procedure: Total cell lysates were resolved on 10% SDS-PAGE and blotted for phosphorylated Erk1/Erk2; the blot was stripped and re-blotted for total Erk1/Erk2. […] Results are representative of 2 separate experiments. The specificity of MAP kinase activation was tested in melanocytes by the inclusion of the selective p42/44 MAP kinase inhibitor PD 98059 (10 μM) in cells treated with Sema7A (25 ng/ml) for 5 minutes (FIG. 4D). Shown are cell lyates resolved on SDS-PAGE and blotted for P-Erk1/Erk2. The blot was stripped and reblotted for total Erk1/Erk2. As expected, Sema7A stimulated phosphorylation of Erk1/Erk2 within 5 minutes of treatment. […] Results are representative of 2 separate experiments. […]
For Western blotting, cells were lysed in RIPA buffer (150 mM NaCl, 1% NP-40, 0.5% DOC, 0.1% SDS, 50 mM Tris-HCl) with protease inhibitors (Boehringer Mannheim, Gmbt, Germany) and phosphatase inhibitors (Gbiosciences, St. Louis, Mo.) and protein was quantified using bovine serum albumen (BSA) as standard (Bio-Rad Laboratories, Hercules, Calif.). […] After washing in PBS, cells were re-suspended in 0.5% formalin in PBS/1% BSA and analyzed using a FACS Caliber Machine (Becton Dickenson) at the flow cytometry core facility at the University of Rochester.

| Structure (SMILES) | Change in Plexin C1 protein (Plexin C1; C32 melanoma cells) | Change in Plexin C1 protein (Plexin C1; WM115 melanoma cells) | Lowest dose that stimulated Plexin C1 expression (Plexin C1; WW165 cells, dose response 0.1 μM to 3.0 μM) | Change in Plexin C1 protein (Plexin C1; WW165 melanoma cells) | Change in Plexin C1 protein (Plexin C1; WW165 melanoma cells, listed as 5-AzaDc) | Dose sufficient to increase Plexin C1 expression (Plexin C1; YUMAC cells, dose response 0.1 μM to 3.0 μM) | Change in Plexin C1 protein (Plexin C1; YUMAC melanoma cells) | Lowest dose that stimulated Plexin C1 expression (Plexin C1; YURIF cells, dose response 0.1 μM to 3.0 μM) | Change in Plexin C1 protein (Plexin C1; YURIF melanoma cells) | Change in Plexin C1 protein (Plexin C1; YURIF melanoma cells, listed as 5-AzaDc) | Change in Plexin C1 protein (Plexin C1; YUSIK melanoma cells) | Effect on Sema7A-induced Erk1/Erk2 phosphorylation (Erk1/Erk2) |
| --- | --- | --- | --- | --- | --- | --- | --- | --- | --- | --- | --- | --- |
| Nc1ncn([C@H]2C[C@H](O)[C@@H](CO)O2)c(=O)n1 [5-Aza2Dc, 5-Aza-2′-Deoxycytidine] | no change | no change | 1.0 µM | reduction | decrease | 0.1 µM | increase | 1.0 µM | reduction | decrease | no change | – |
| COc1cccc(-c2cc(=O)c3ccccc3o2)c1N [PD 98059] | – | – | – | – | – | – | – | – | – | – | – | no induction; also recorded: inhibited |
